Entries after “also recorded” stand apart in the source; their conditions may differ. No end group written: not given here.
Legend:
[1] = system: peptide-pulsed TISI cells; test: In vitro CTL induction with peptide-pulsed DCs, IFN-gamma ELISPOT assay; type: cell-based, human; details: for Peptide specific CTL activity (IFN-gamma production), IFN-gamma ELISPOT: CTLs induced with the peptide, target cells pulsed with peptide vs not pulsed (control); for CTL inducibility: summary statement in the description
Source text: Monocyte-derived dendritic cells (DCs) were used as antigen-presenting cells to induce cytotoxic T lymphocyte (CTL) responses against peptides presented on human leukocyte antigen (HLA). DCs were generated in vitro as described elsewhere (Nakahara S et al., Cancer Res 2003 Jul. 15, 63(14): 4112-8). Specifically, peripheral blood mononuclear cells isolated from a normal volunteer (HLA-A*2402 positive) by Ficoll-Paque plus (Pharmacia) solution were separated by adherence to a plastic tissue culture dish (Becton Dickinson) so as to enrich them as the monocyte fraction. The monocyte-enriched population was cultured in the presence of 1000 IU/ml of granulocyte-macrophage colony-stimulating factor (R&D System) and 1000 IU/ml of interleukin (IL)-4 (R&D System) in AIM-V Medium (Invitrogen) containing 2% heatinactivated autologous serum (AS). After 7 days of culture, the cytokine-induced DCs were pulsed with 20 micro g/ml of each of the synthesized peptides in the presence of 3 micro g/ml of beta 2-microglobulin for 3 hr at 37 degrees C. in AIM-V Medium. The generated cells appeared to express DC-associated molecules, such as CD80, CD83, CD86 and HLA class II, on their cell surfaces (data not shown). These peptide-pulsed DCs were then inactivated by X ray-irradiated (20 Gy) and mixed at a 1:20 ratio with autologous CD8+ T cells, obtained by positive selection with CD8 Positive Isolation Kit (Dynal). These cultures were set up in 48-well plates (Corning); each well contained 1.5×10^4 peptide-pulsed DCs, 3×10^5 CD8+ T cells and 10 ng/ml of IL-7 (R&D System) in 0.5 ml of AIM-V/2% AS medium. Three days later, these cultures were supplemented with IL-2 (CHIRON) to a final concentration of 20 IU/ml. On day 7 and 14, the T cells were further stimulated with the autologous peptide-pulsed DCs. The DCs were prepared each time by the same way described above. CTL was tested against peptide-pulsed TISI cells after the 3rd round of peptide stimulation on day 21 (Tanaka H et al., Br J Cancer 2001 Jan 5, 84(1): 94-9; Umano Y et al., Br J Cancer 2001 Apr. 20, 84(8): 1052-7; Uchida N et al., Clin Cancer Res 2004 Dec. 15, 10(24): 8577-86; Suda T et al., Cancer Sci 2006 May, 97(5): 411-9; Watanabe T et al., Cancer Sci 2005 August, 96(8): 498-506).
(§1) Peptide-pulsed TISI (1×10^4/well) was prepared as stimulator cells. Cultured cells in 48 wells were used as responder cells. IFN-gamma ELISPOT assay and IFN-gamma ELISA were performed under manufacture procedure.

[2] = system: peptide-pulsed TISI cells; test: IFN-gamma ELISA of expanded CTL lines; type: cell-based, human; details: CTL lines stimulated with the peptide; target cells pulsed with peptide vs without peptide pulse
Procedure: CTLs were expanded in culture using the method similar to the one described by Riddell et al. (Walter E A et al., N Engl J Med 1995 October 19, 333(16): 1038-44; Riddell S R et al., Nat Med 1996 February, 2(2): 216-23). A total of 5×10^4 CTLs were suspended in 25 ml of AIM-V/5% AS medium with 2 kinds of human B-lymphoblastoid cell lines, inactivated by Mitomycin C, in the presence of 40 ng/ml of anti-CD3 monoclonal antibody (Pharmingen). One day after initiating the cultures, 120 IU/ml of IL-2 were added to the cultures. The cultures were fed with fresh AIM-V/5% AS medium containing 30 IU/ml of IL-2 on days 5, 8 and 11 (Tanaka H et al., Br J Cancer 2001 Jan 5, 84(1): 94-9; Umano Y et al., Br J Cancer 2001 Apr. 20, 84(8): 1052-7; Uchida N et al., Clin Cancer Res 2004 Dec. 15, 10(24): 8577-86; Suda T et al., Cancer Sci 2006 May, 97(5): 411-9; Watanabe T et al., Cancer Sci 2005 August, 96(8): 498-506).
as §1

[3] = system: peptide-pulsed TISI cells; test: IFN-gamma ELISA of CTL clones established by limiting dilution; type: cell-based, human; details: CTL clones from limiting dilution, target cells pulsed with peptide vs not pulsed
Procedure: The dilutions were made to have 0.3, 1, and 3 CTLs/well in 96 round-bottomed micro titer plate (Nalge Nunc International). CTLs were cultured with 1×10^4 cells/well of 2 kinds of human B-lymphoblastoid cell lines, 30 ng/ml of anti-CD3 antibody, and 125 IU/ml of IL-2 in a total of 150 micro 1/well of AIM-V Medium containing 5% AS. 50 micro 1/well of IL-2 were added to the medium 10 days later so to reach a final concentration of 125 IU/ml IL-2. CTL activity was tested on the 14th day, and CTL clones were expanded using the same method as described above (Uchida N et al., Clin Cancer Res 2004 Dec. 15, 10(24): 8577-86; Suda T et al., Cancer Sci 2006 May, 97(5): 411-9; Watanabe T et al., Cancer Sci 2005 August, 96(8): 498-506).
as §1

[4] = system: COS7 cells transfected with SEMA5B and HLA-A*2402; test: Specific CTL activity against target cells expressing SEMA5B and HLA-A*2402; type: cell-based, African green monkey; details: CTL line established with the peptide
Source text: The cDNA encoding an open reading frame of target genes or HLA-A*2402 was amplified by PCR. The PCR-amplified product was cloned into expression vector. The plasmids were transfected into COS7, which is the target genes and HLA-A*2402-null cell line, using lipofectamine 2000 (Invitrogen) according to the manufacturer's recommended procedures. After 2 days from transfection, the transfected cells were harvested with versene (Invitrogen) and used as the stimulator cells (5×10^4 cells/well) for CTL activity assay.
The established CTL line raised against SEMA5B-A24-10-290 (SEQ ID NO: 41) peptide was examined for the ability to recognize target cells that express SEMA5B and HLA-A*2402 molecule. COS7 cells transfected with both the full SEMA5B and HLA-A*2402 gene (a specific model for the target cells that express SEMA5B and HLA-A*2402 gene) were prepared as a stimulator cells, and COS7 cells transfected with either full length of SEMA5B or HLA-A*2402 were used as the controls.

RFSHLVVDL [SEQ ID NO: 13, RFSHLVVDL]
Peptide specific CTL activity (IFN-gamma production), IFN-gamma ELISPOT ([1]; listed as SEMA5B-A24-9-470): potent IFN-gamma production; also recorded: significant and specific CTL activity | CTL inducibility [1]: particularly high CTL inducibility

VFMCGTNAF [SEQ ID NO: 4, VFMCGTNAF]
Peptide specific CTL activity (IFN-gamma production), IFN-gamma ELISPOT ([1]; listed as SEMA5B-A24-9-196): potent IFN-gamma production; also recorded: significant and specific CTL activity | CTL inducibility [1]: particularly high CTL inducibility

FYYNELQSAF [SEQ ID NO: 40, FYYNELQSAF]
Peptide specific CTL activity (IFN-gamma production), IFN-gamma ELISPOT ([1]; listed as SEMA5B-A24-10-354): potent IFN-gamma production; also recorded: significant and specific CTL activity | CTL inducibility [1]: particularly high CTL inducibility

CFLGSGLLTL [SEQ ID NO: 47, CFLGSGLLTL]
Peptide specific CTL activity (IFN-gamma production), IFN-gamma ELISPOT ([1]; listed as SEMA5B-A24-10-1044): potent IFN-gamma production; also recorded: significant and specific CTL activity | CTL inducibility [1]: particularly high CTL inducibility

AYDIGLFAYF [SEQ ID NO: 41, AYDIGLFAYF]
Peptide specific CTL activity (IFN-gamma production), IFN-gamma ELISPOT ([1]; listed as SEMA5B-A24-10-290): potent IFN-gamma production; also recorded: significant and specific CTL activity | CTL inducibility [1]: particularly high CTL inducibility | IFN-gamma production of CTL lines, IFN-gamma ELISA [2]: potent IFN-gamma production | IFN-gamma production of CTL clones, IFN-gamma ELISA ([3]; listed as SEMA5B-A24-10-290): potent IFN-gamma production | Specific CTL activity against control COS7 cells expressing either HLA-A*2402 or SEMA5B ([4]; controls): no significant specific CTL activity | Specific CTL activity against COS7 cells transfected with both SEMA5B and HLA-A*2402 ([4]; listed as SEMA5B-A24-10-290): potent CTL activity; also recorded: specific CTL activity

LYAATVIDF [SEQ ID NO: 1, LYAATVIDF]
Peptide specific CTL activity (IFN-gamma production), IFN-gamma ELISPOT [1]: no specific IFN-gamma production

IFWASWGSW [SEQ ID NO: 8, IFWASWGSW]
Peptide specific CTL activity (IFN-gamma production), IFN-gamma ELISPOT ([1]; listed as SEMA5B-A24-9-723): potent IFN-gamma production; also recorded: significant and specific CTL activity | CTL inducibility [1]: particularly high CTL inducibility

AYRSQGACL [SEQ ID NO: 20, AYRSQGACL]
Peptide specific CTL activity (IFN-gamma production), IFN-gamma ELISPOT ([1]; listed as SEMA5B-A24-9-558): potent IFN-gamma production; also recorded: significant and specific CTL activity | CTL inducibility [1]: particularly high CTL inducibility

IGLFAYFFL [SEQ ID NO: 10, IGLFAYFFL]
Peptide specific CTL activity (IFN-gamma production), IFN-gamma ELISPOT ([1]; listed as SEMA5B-A24-9-293): potent IFN-gamma production; also recorded: significant and specific CTL activity | CTL inducibility [1]: particularly high CTL inducibility | IFN-gamma production of CTL lines, IFN-gamma ELISA [2]: potent IFN-gamma production

KWLNEPNFV [SEQ ID NO: 9, KWLNEPNFV]
Peptide specific CTL activity (IFN-gamma production), IFN-gamma ELISPOT ([1]; listed as SEMA5B-A24-9-280): potent IFN-gamma production; also recorded: significant and specific CTL activity | CTL inducibility [1]: particularly high CTL inducibility

PYSEIPVIL [SEQ ID NO: 3, PYSEIPVIL]
Peptide specific CTL activity (IFN-gamma production), IFN-gamma ELISPOT ([1]; listed as SEMA5B-A24-9-1010): potent IFN-gamma production; also recorded: significant and specific CTL activity | CTL inducibility [1]: particularly high CTL inducibility | IFN-gamma production of CTL lines, IFN-gamma ELISA [2]: potent IFN-gamma production | IFN-gamma production of CTL clones, IFN-gamma ELISA ([3]; listed as SEMA5B-A24-9-1010): potent IFN-gamma production

CYLEELHVL [SEQ ID NO: 2, CYLEELHVL]
Peptide specific CTL activity (IFN-gamma production), IFN-gamma ELISPOT ([1]; listed as SEMA5B-A24-9-512): potent IFN-gamma production; also recorded: significant and specific CTL activity | CTL inducibility [1]: particularly high CTL inducibility | IFN-gamma production of CTL lines, IFN-gamma ELISA [2]: potent IFN-gamma production | IFN-gamma production of CTL clones, IFN-gamma ELISA ([3]; listed as SEMA5B-A24-9-512): potent IFN-gamma production

LYIGTESGTI [SEQ ID NO: 54, LYIGTESGTI]
Peptide specific CTL activity (IFN-gamma production), IFN-gamma ELISPOT ([1]; listed as SEMA5B-A24-10-489): potent IFN-gamma production; also recorded: significant and specific CTL activity | CTL inducibility [1]: particularly high CTL inducibility

— patent US20150322112A1, “SEMA5B PEPTIDES AND VACCINES CONTAINING THE SAME” (ONCOTHERAPY SCIENCE, INC., priority 2012, published 2015)
